Test results taken from patent US10702568B2, “Compositions containing silymarin and sulfoalkyl ether cyclodextrin and methods of using the same” (UNIVERSITY OF KANSAS, priority 2015, dated 2020).

Assays:
Type in all cases: physicochemical
[1] = Mutual phase solubility study of Silymarin-CAPTISOL® complex (method A, method B)
Procedure: Two methods, method A and method B, were used to prepare the silymarin-CAPTISOL® complexes and the phase solubility of the various components in the complexes were measured and compared. The silymarin extract was obtained from Indena® (Indena Code: 9065110).
In method A, the Silymarin-CAPTISOL® complex was prepared through a hot extraction method. […] The filtrates were analyzed using HPLC for Taxifolin, Silychristin, Silydianin, Silybin A, Silybin B, Isosilybin A and Isosilybin B after appropriate dilution.
In method B, the Silymarin-CAPTISOL® complex was prepared by combining the CAPTISOL® and silymarin at ambient temperature: 120 mg of the extract was incorporated in 0 10, 20, 40, 60, 80 and 100 mM concentrations of CAPTISOL® solution in water. These samples were shook at room temperature for 3 days. At equilibrium, samples were centrifuged at 10,000 RPM and filtered using Millipore (0.22 μm) syringe filter. The filtrates were analyzed using HPLC for Taxifolin, Silychristin, Silydianin, Silybin A, Silybin B, Isosilybin A and Isosilybin B after appropriate dilution.
The solubility of the Silymarin-CAPTISOL® complexes prepared using method A and method B were measured.

[2] = Log D of silymarin components (octanol/buffer, HPLC); settings: octanol/universal buffer pH 7.4, 16 h shaking at room temperature; read-out: Log D (7.4 pH)
Procedure: Silymarin components including taxifolin, silydianin, silychristin, silybin A, silybin B, isosilybin A, and isosilybin B were tested for their solubility in water and also for their Log D value. The silymarin extract was obtained from Indena® (Indena Code: 9065110). The HPLC system consisted of Waters system equipped with performance PLUS inline degasser along dual λ absorbance detector set at 288 nm. The chromatographic separation of silymarin constituents was achieved on a Symmetry Shield RP18 column (150×4.6 mm, 5 μm); which was maintained at ambient room temperature conditions. The binary mobile phase system consisted of reservoir A (methanol: 10 mM ammonium acetate pH 5 [65:35 v/v]) and reservoir B (10 mM ammonium acetate, pH 5) were run as per gradient program (0-1.9 min: 25% A and 75% B; 2.0-14.9 min: 80% A and 20% B and 15-37.9 min: 80% A and 20% B and 38-40 min: 25% A and 75% B). The flow rate was 1 mL/min throughout the analytical run.
To determine the Log D of silymarin components, the silymarin extract (2 mg) was dissolved in 100% DMSO and then used for the experiment. Different buffers between pH ranges of 1.0 to 12 were prepared by using universal buffer stock containing 25 mM hydrochloric acid, 25 mM citric acid, 25 mM phosphoric acid, 30 mM boric acid and 20 mM sodium chloride. About 45 mL of universal buffer was titrated with Sodium hydroxide (5M) to obtain desired pH. A 10 μL of silymarin stock solution was spiked into Eppendorf tube containing 500 μL each of a buffer and presaturated octanol. This mixture was vortexed for 5 minutes and kept for shaking at room temperature. After 16 h, the mixture was centrifuged at 10,000 RPM for 30 minutes. After centrifugation buffer and octanol phases were separated, both phases were diluted with acetonitrile (1:1) and subject to HPLC analysis for quantitation of individual components of silymarin. The Log D values of each compound at a pH was determined by Log D (pH)=Log [Organic (peak area)/Aqueous (peak area)].

[3] = Silymarin solubility at elevated temperatures (Example 3, HPLC); settings: 160 mg silymarin in 1 ml 0.1 M CAPTISOL®, sealed vial, 70-75° C., about one hour
Procedure: The solubility of silymarin was also studied at elevated temperatures. The silymarin-water samples were prepared by adding 3.0 ml of deionized water or 3.0 ml of CAPTISOL® solution (0.05 M, 0.10 M, or 0.20 M) to 155 mg silymarin 80% in 5 ml Eppendorf tube, and the tubes were capped securely to minimize evaporation loss and submerged in a water bath at an elevated temperature (60° C. or 75° C.)). CAPTISOL® solutions were prepared by dissolving CAPTISOL® in water. The solution in the tube was stirred for a certain amount of time. The solution was then centrifuged for 5 min twice and the supernatant was diluted with 40% methanol for HPLC analysis. The silymarin CAPTISOL® samples were diluted by adding 10 μL supernatant sample to 990 μL diluent. The silymarin water samples were diluted by adding 100 μL supernatant sample to 900 μL diluent. The diluted samples were then analyzed using HPLC according to the procedures described in Example 1.
Saturated CAPTISOL® silymarin solutions were also prepared by adding 160 mg silymarin to 1 ml of 0.1 M CAPTISOL® solution in a sealed vial under mechanic stirring and the vial was kept in a water bath at 70-75° C. The solution became quickly saturated in about one hour. The solution was then cooled to room temperature and centrifuged, and the supernatant can then be used for preparing various formulations. […]

Question: Which “number of fold increase in solubility” value ([1]; CAPTISOL® 10 mM, Method A (hot extraction 70-75° C., 60 minutes)) does the source give for `O=C1c2c(O)cc(O)cc2O[C@H](c2ccc(O)c(O)c2)[C@H]1O` [Taxifolin] here?
Answer: 1.95 fold

Question: What about the “number of fold increase in solubility” value ([1]; CAPTISOL® 10 mM, Method B (ambient temperature, 3 days)) of the same compound?
Answer: 1.97 fold

Question: What about the “number of fold increase in solubility” value ([1]; CAPTISOL® 20 mM, Method A (hot extraction 70-75° C., 60 minutes)) of the same compound?
Answer: 3.32 fold

Question: And the “number of fold increase in solubility” value ([1]; CAPTISOL® 20 mM, Method B (ambient temperature, 3 days))?
Answer: 3.06 fold

Question: What about the “number of fold increase in solubility” value ([1]; CAPTISOL® 40 mM, Method A (hot extraction 70-75° C., 60 minutes)) of the same compound?
Answer: 3.54 fold

Question: What about the “number of fold increase in solubility” value ([1]; CAPTISOL® 40 mM, Method B (ambient temperature, 3 days)) of the same compound?
Answer: 3.39 fold

Question: And the “number of fold increase in solubility” value ([1]; CAPTISOL® 60 mM, Method A (hot extraction 70-75° C., 60 minutes))?
Answer: 4.26 fold

Question: What about the “number of fold increase in solubility” value ([1]; CAPTISOL® 60 mM, Method B (ambient temperature, 3 days)) of the same compound?
Answer: 3.48 fold

Question: And the “number of fold increase in solubility” value ([1]; CAPTISOL® 80 mM, Method A (hot extraction 70-75° C., 60 minutes))?
Answer: 4.51 fold

Question: And the “number of fold increase in solubility” value ([1]; CAPTISOL® 80 mM, Method B (ambient temperature, 3 days))?
Answer: 3.47 fold

Question: And the “number of fold increase in solubility” value ([1]; CAPTISOL® 100 mM, Method A (hot extraction 70-75° C., 60 minutes))?
Answer: 4.77 fold

Question: What about the “number of fold increase in solubility” value ([1]; CAPTISOL® 100 mM, Method B (ambient temperature, 3 days)) of the same compound?
Answer: 3.72 fold

Question: And the logD at 16 h [2]?
Answer: 1.35

Question: What about the “concentration fold higher than in the water silymarin sample” value [3] of the same compound?
Answer: 5 fold
